The values that follow come from patent publication US12410208B2, “(2-acetamidyl)thio-beta-D-galactopyranoside derivatives” (Idorsia Pharmaceuticals Ltd, priority 2020, dated 2025).

Read-outs that look alike come from different tables or passages of the source.

Test [1] concerns the target biotinylated human Gal-3 (hGal-3) (Homo sapiens, UniProt P17931). In words: Competitive binding assay: biotinylated hGal-3 binding to microplate-adsorbed asialofetuin (ASF), spectrophotometric. The following applies: Gal-3 inhibition, read-out: IC50. The method in brief: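 Serially diluted compounds competed with asialofetuin on the plate for biotinylated human Gal-3 during a 3 h incubation at 4° C. Streptavidin-peroxidase with ABTS gave the spectrophotometric signal. IC50 values were averaged over repeat runs.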

The target of the next test is human Gal-1 (hGal-1) (Homo sapiens, UniProt P09382). In words: Competitive binding assay: biotinylated hGal-1 binding to microplate-adsorbed asialofetuin (ASF), spectrophotometric. As to conditions: hGal-1 binding to asialofetuin; Table 15; R and S epimers of selected Examples also listed; read-out: IC50 (Galectin-1 inhibition). An outline of the steps:
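Spectrophotometric competition readout with ABTS after streptavidin-peroxidase (80 ng/mL, 1 h, 4 °C) detection of bound biotinylated hGal-1.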

human Gal-1 (hGal-1), sequence (P09382 whole entry): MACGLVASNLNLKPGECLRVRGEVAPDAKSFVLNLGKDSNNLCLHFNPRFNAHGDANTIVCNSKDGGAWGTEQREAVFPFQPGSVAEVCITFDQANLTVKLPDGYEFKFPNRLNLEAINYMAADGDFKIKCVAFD
biotinylated human Gal-3 (hGal-3), sequence (P17931 whole entry): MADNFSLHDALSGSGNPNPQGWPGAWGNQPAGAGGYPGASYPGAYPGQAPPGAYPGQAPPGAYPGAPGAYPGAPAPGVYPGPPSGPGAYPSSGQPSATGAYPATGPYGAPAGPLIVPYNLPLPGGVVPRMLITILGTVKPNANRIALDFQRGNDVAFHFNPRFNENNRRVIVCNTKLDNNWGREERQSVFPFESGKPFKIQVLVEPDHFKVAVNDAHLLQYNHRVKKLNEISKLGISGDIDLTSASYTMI

`CCN(C)C(=O)C(S[C@@H]1O[C@H](CO)[C@H](O)[C@H](n2cc(-c3cc(F)c(F)c(F)c3)nn2)[C@H]1O)C(C)C` (stereo partly drawn) [Example 2.53.203., 2-(((2S,3R,4S,5R,6R)-3,5-dihydroxy-6-(hydroxymethyl)-4-(4-(3,4,5-trifluorophenyl)-1H-1,2,3-triazol-1-yl)tetrahydro-2H-pyran-2-yl)thio)-N-ethyl-N,3-dimethylbutanamide, reference compound]: the IC50 (commonly the concentration at which inhibition is half-maximal) was determined as 7800 nM in test [1] (Table 1 (Reference Examples)) and 35.9 µM at human Gal-1 (hGal-1).
Turning to `CCN(C)C(=O)[C@@H](S[C@@H]1O[C@H](CO)[C@H](O)[C@H](n2cc(-c3cc(F)c(F)c(F)c3)nn2)[C@H]1O)C1CCOCC1` [Example 2.56.203S., (S)-2-(((2S,3R,4S,5R,6R)-3,5-dihydroxy-6-(hydroxymethyl)-4-(4-(3,4,5-trifluorophenyl)-1H-1,2,3-triazol-1-yl)tetrahydro-2H-pyran-2-yl)thio)-N-ethyl-N-methyl-2-(tetrahydro-2H-pyran-4-yl)acetamide, reference compound], the IC50 came to 6860 nM in test [1] (Table 1 (Reference Examples)) and 36 µM on human Gal-1 (hGal-1).
Consider `CCC(O)C(S[C@@H]1O[C@H](CO)[C@H](O)[C@H](n2cc(-c3cc(F)c(F)c(F)c3)nn2)[C@H]1O)C(=O)N(C)CC` (stereo partly drawn) [Example 2.60.203., 2-(((2S,3R,4S,5R,6R)-3,5-Dihydroxy-6-(hydroxymethyl)-4-(4-(3,4,5-trifluorophenyl)-1H-1,2,3-triazol-1-yl)tetrahydro-2H-pyran-2-yl)thio)-N-ethyl-3-hydroxy-N-methylpentanamide], for which the IC50 in test [1] (Table 7) amounted to 170 nM; at human Gal-1 (hGal-1), 1.02 µM.
The matching figures for `CCC(O)C(S[C@@H]1O[C@H](CO)[C@H](O)[C@H](n2cc(-c3cc(F)c(F)c(F)c3)nn2)[C@H]1O)C(=O)N1CCC1` (stereo partly drawn) [Example 2.60.206., 1-(Azetidin-1-yl)-2-(((2S,3R,4S,5R,6R)-3,5-dihydroxy-6-(hydroxymethyl)-4-(4-(3,4,5-trifluorophenyl)-1H-1,2,3-triazol-1-yl)tetrahydro-2H-pyran-2-yl)thio)-3-hydroxypentan-1-one]: 500 nM and 3.4 µM.
The corresponding values for `O=C(C(S[C@@H]1O[C@H](CO)[C@H](O)[C@H](n2cc(-c3cc(F)c(F)c(F)c3)nn2)[C@H]1O)C(O)Cc1ccccc1)N1CCC1` (stereo partly drawn) [Example 2.64.206., 1-(Azetidin-1-yl)-2-(((2S,3R,4S,5R,6R)-3,5-dihydroxy-6-(hydroxymethyl)-4-(4-(3,4,5-trifluorophenyl)-1H-1,2,3-triazol-1-yl)tetrahydro-2H-pyran-2-yl)thio)-3-hydroxy-4-phenylbutan-1-one] are 710 nM and 5.94 µM.
The matching figures for `CN(CC1CC1)C(=O)C(S[C@@H]1O[C@H](CO)[C@H](O)[C@H](n2cc(-c3cc(F)c(F)c(F)c3)nn2)[C@H]1O)C(O)Cc1ccccc1` (stereo partly drawn) [Example 2.64.218., N-(Cyclopropylmethyl)-2-(((2S,3R,4S,5R,6R)-3,5-dihydroxy-6-(hydroxymethyl)-4-(4-(3,4,5-trifluorophenyl)-1H-1,2,3-triazol-1-yl)tetrahydro-2H-pyran-2-yl)thio)-3-hydroxy-N-methyl-4-phenylbutanamide]: 110 nM and 0.34 µM.
For the compound `CCN(C)C(=O)C(S[C@@H]1O[C@H](CO)[C@H](O)[C@H](n2cc(-c3cc(F)c(F)c(F)c3)nn2)[C@H]1O)C(O)c1ccn(C)n1` (stereo partly drawn) [Example 2.65.203., 2-(((2S,3R,4S,5R,6R)-3,5-dihydroxy-6-(hydroxymethyl)-4-(4-(3,4,5-trifluorophenyl)-1H-1,2,3-triazol-1-yl)tetrahydro-2H-pyran-2-yl)thio)-N-ethyl-3-hydroxy-N-methyl-3-(1-methyl-1H-pyrazol-3-yl)propanamide], the IC50 in test [1] (Table 7) is 650 nM; on human Gal-1 (hGal-1) it was 3.05 µM.
